Measured values from US8623909B2, “Prophylactic/therapeutic agents for lifestyle-related diseases” (priority 2008, dated 2014).
Marks after values point to notes of the source that are not given here.

Tests used:
PSA promoter = assay: PSA promoter-luciferase activity in LNCaP cells (dual-luciferase reporter); format: cell-based, human
Description: Plasmid pCMV-hAR was constructed based on a method previously reported by the inventors of the present invention (J. Biol. Chem., 282, 7329-7338). In addition, reporter plasmids consisting of PGL3-PSA (human) and PGL3-UCP-1 (mouse) were also constructed based on a method previously reported by the inventors of the present invention (Diabetes, 54, 1000-1008). Furthermore, pRL-SV40 was acquired commercially.
NIH-3T30-L1 mouse preadipocytes were cultured in Dulbecco's modified Eagle's medium (Sera Laboratories) containing 10% fetal calf serum. In addition, cells of human prostate cancer cell line LNCap were cultured in RPMI 1640 medium (Sigma) containing 10% fetal calf serum. Furthermore, these two types of cell lines were obtained from the American Type Culture Collection (Manassas).
The NIH-3T3-L1 cells of 2) above were co-transfected with pCMV-hAR, pRL-SV40 and PGL3-UCP-1 (mouse) in a 24-well plate using an Effectene Transfection Kit (Qiagen) and a Fugene HD Kit (Roche Diagnostics). In addition, the LNCaP cells of 2) above were similarly co-transfected with pCMV-hAR, pRL-SV40 and PGL3-PSA (human).
4) Measurement of Effect on PSA Promoter-Luciferase Activity in LNCaP Cells
The LNCaP cells co-transfected in 3) above were cultured for 24 hours in DMEM or RPMI 1640 containing 10% fetal calf serum treated with dextran-charcoal and a test compound (dissolved in a small amount of DMSO) 24 hours after transfection. Subsequently, the activities of firefly luciferase and Renilla luciferase were assayed in a 24-well plate using the Dual-Luciferase Reporter Assay System (Promega) in accordance with the protocol of Minilumat LB9507 (Berthold Technologies). Furthermore, the value of firefly luciferase activity were normalized based on the internal Renilla control, and were presented as relative luciferase activity.

ORX rats [1] = assay: Anal levator muscle weight in ORX rats (anabolic effect); format: in vivo, rat; conditions: for Anal levator muscle weight: 21 days, solvent 41.6, sham 73.1; for Change in anal levator muscle weight (in words): dihydrotestosterone 1 and 10 mg/kg, compound of formula (Ia) 10 mg/kg
Description: (§1) 11-week-old, male Sprague-Dawley (SD) rats (320 to 340 g, purchased from Charles River Japan) were housed for 1 week in a room maintained at a light-dark cycle of 12 hours per day and controlled at a set temperature and humidity while allowing free access to a commercially available standard rodent diet and water.
(§2) After housing the animals, the animals were anesthetized with ether, and underwent bilateral orchiectomy (orchiectomized rats: ORX) or a sham treatment. After awaking from the anesthesia, the animals were assigned to test groups of 3 to 5 animals each. Starting on the day after surgery, the animals were subcutaneously injected once a day with an injection solution of the test compound (prepared by dissolving the test compound in a small amount of DMSO and diluting with olive oil for animal testing (consisting of 95% olive oil and 5% DMSO)) at the rate of 0.1 ml/100 g of body weight. After 21 days, the rats were sacrificed by exsanguination from the abdominal artery, the ventral prostates and anal levator muscle were excised and weighed followed by immersing in RNAlater (Nacalai Tesque) for extraction of RNA. In addition, soft tissue was removed from the right femur, and immersed in 75% ethanol followed by storage for subsequent measurement of the bone mineral density. Moreover, liver and visceral fat tissue were collected and immersed in RNAlater for RNA extraction.
The anabolic effect of compounds was studied by using as indicators changes in anal levator muscle weight and bone mineral density (BMD) of the femur and vertebra in the ORX rats treated in the aforementioned section (4)-1).
Anal levator muscle is a typical skeletal muscle localized around the rat rectum, and is considered to be sensitive to male steroid hormone. Although the anal levator muscle is considerably smaller in castrated rats as compared with normal male rats, its weight is well known to be able to be restored to normal by administration of androgen (J. Pharmacol. Exp. Ther., 91, 38-44). The results of measuring the weights of the anal levator muscle in the ORX rats obtained in section (4)-1) are shown in the following Table 7.

PPARδ mRNA = PPARδ mRNA in anal levator muscle of ORX rats; format: in vivo, rat; conditions: for PPARδ mRNA/GAPDH mRNA in anal levator muscle: solvent 1.0, sham 0.5; for Effect on PPARδ mRNA expression in anal levator muscle (in words): dihydrotestosterone 1 and 10 mg/kg, compound of formula (Ia) 10 mg/kg
Description: as §1, §2
(§3) Total RNA in various tissues of the ORX rats was isolated using the RNeasy Mini Kit or RNeasy Fibrous Tissue Mini Kit (Qiagen). 1 μg of this total RNA was subjected to reverse transcription using the QuantiaTect Reverse Transcription Kit (Qiagen). Next, cDNA was subjected to real-time PCR analysis using LightCycler (Roche Diagnostics) and each of the transcription products was quantified. Furthermore, PCR was carried out in 20 μl of a reaction mixture under the following conditions using SYBR Premix Ex Taq (Takara Biotechnology): 50 cycles consisting of denaturation for 5 seconds at 95° C., annealing for 20 seconds at 60° C. and elongation for 25 seconds at 72° C. In addition, glyceraldehyde-3-phosphate dehydrogenase (GAPDH) mRNA was simultaneously amplified as an internal standard, and the real-time PCR value of each transcription product were calculated as a relative value based on GAPDH.
In addition, expression levels of peroxisome proliferator activating factor receptor-delta (PPARδ) mRNA in anal levator muscle were also measured. This is because this nuclear receptor has been indicated to be related to β-oxidation of fatty acids and energy consumption in skeletal muscle (Proc. Natl. Acad. Sci. USA, 100, 15924-15929). Furthermore, measurements were carried out using a similar method as that previously described.

ORX rats [2] = assay: Plasma triglyceride level in ORX rats; format: in vivo, rat; conditions: for Effect on triglyceride levels (in words): 1 and 10 mg/Kg; for Plasma triglyceride concentration: solvent 130.7, sham 236.5
From the text: as §2, with “Starting on the day after surgery, the animals were subcutaneously injected once a day with an injection solution of the test compound (prepared by dissolving the test compound in a small amount of DMSO and diluting with olive oil for animal testing (consisting of 95% olive oil and 5% DMSO)) at the rate of 0.1 ml/100 g of body weight.” left out
Plasma triglyceride and cholesterol levels were measured to characterize the metabolic profiles of ORX rats treated in the aforementioned section (4)-1).

IRS-2 mRNA = IRS-2 mRNA level in liver of ORX rats; format: in vivo, rat; conditions: for IRS-2 mRNA/GAPDH mRNA level in rat liver: solvent 4.8, sham 1.0
From the text: as §2, with “Starting on the day after surgery, the animals were subcutaneously injected once a day with an injection solution of the test compound (prepared by dissolving the test compound in a small amount of DMSO and diluting with olive oil for animal testing (consisting of 95% olive oil and 5% DMSO)) at the rate of 0.1 ml/100 g of body weight.” left out
as §3
In addition, mRNA levels of insulin receptor substrate 2 (IRS-2) in the liver were also measured.

ORX rats [3] = assay: Total plasma adiponectin level in ORX rats; format: in vivo, rat; conditions: for Plasma adiponectin concentration: solvent 2.2, sham 1.3
Description: as §1, §2
The inventors of the present invention measured total plasma adiponectin levels in ORX rats treated in the aforementioned section (4)-1). Plasma insulin levels were also measured simultaneously.

Structure (SMILES) | PSA promoter activity stimulation (PSA promoter; 10^−7 M or 10^−8 M) | Anal levator muscle weight (ORX rats [1]; 1 mg/Kg s.c. once a day) | Anal levator muscle weight (ORX rats [1]; 10 mg/Kg s.c. once a day) | Change in anal levator muscle weight (in words) (ORX rats [1]) | PPARδ mRNA/GAPDH mRNA in anal levator muscle (PPARδ mRNA; 1 mg/Kg) | PPARδ mRNA/GAPDH mRNA in anal levator muscle (PPARδ mRNA; 10 mg/Kg) | Effect on PPARδ mRNA expression in anal levator muscle (in words) (PPARδ mRNA) | Effect on triglyceride levels (in words) (ORX rats [2]) | Effect on liver IRS-2 mRNA level (in words) (IRS-2 mRNA) | IRS-2 mRNA/GAPDH mRNA level in rat liver (IRS-2 mRNA; 1 mg/Kg) | IRS-2 mRNA/GAPDH mRNA level in rat liver (IRS-2 mRNA; 10 mg/Kg) | Value of luciferase transcription activity (PSA promoter, relative luciferase activity) (PSA promoter; 10^−5M, 24 hours, control (DMSO) 1.0) | Plasma adiponectin concentration (ORX rats [3]; 1 mg/Kg) | Plasma adiponectin concentration (ORX rats [3]; 10 mg/Kg) | Effect on castration-induced increase of plasma adiponectin (in words) (ORX rats [3]; 1 or 10 mg/kg) | Plasma triglyceride concentration (ORX rats [2]; 1 mg/Kg) | Plasma triglyceride concentration (ORX rats [2]; 10 mg/Kg)
C[C@]12CCC(=O)C[C@@H]1CC[C@@H]1[C@@H]2CC[C@]2(C)[C@@H](O)CC[C@@H]12 [Dihydrotestosterone, 5α-dihydrotestosterone, reference compound] | roughly 9 fold | 93.8^## mg/100 g body weight | 120.6**^,## mg/100 g body weight | weights increased beyond those in the case of the sham treated rats | 0.9 | 0.5 | inhibited this expression dose-dependently | raised triglyceride levels | decreased | 5.1 | 0.8 | – | – | – | – | – | –
CC(=O)[C@H]1CCC2C3CCc4c(C)cccc4C3CC[C@@]21C (stereo partly drawn) [Compound of formula (Ia)] | – | 59.1^ mg/100 g body weight | 66.2* mg/100 g body weight | increased significantly to a similar level to that observed in the sham treatment group | 0.9 | 1.7* | enhanced this expression | lowered triglyceride levels considerably | increased | 10.6** | 8.8* | 1.3 | 2.2* μg/mL | 2.1* μg/mL | did not demonstrate such inhibitory activity on the adiponectin levels | 41.3** mg/dL | 39.3** mg/dL
